Data: patent US4146631A, “Benzamide derivatives” (May & Baker Limited, priority 1976, dated 1979)

System: passive cutaneous anaphylactic (PCA) reaction
Assay: Passive cutaneous anaphylactic (PCA) reaction, reagin-allergen combination, in rats
Assay type: in vivo
Details: Rattus norvegicus; for ED100: intravenous, just before injection of allergen, read-out: ED100 (intravenous dose which produces 100% inhibition of the PCA reaction); for inhibition in vivo at 100 mg/kg: oral dose of 100 mg/kg; for inhibition in vivo at 100 mg/kg / ED50: thirty minutes before intravenous allergen; for ED50: oral, read-out: ED50 (oral dose which produces 50% inhibition of the PCA reaction)
Source text: In pharmacological tests the benzamide derivatives of general formula I suppress the passive cutaneous anaphylactic (PCA) reaction resulting from combination of tissue-fixed reaginic antibodies with the appropriate antigenic material (termed reagin-allergen combination) and carried out in an essentially similar manner to that described by Ogilvie [Nature (Lond.), (1964), 204, 91-92; Immunology, (1967), 12, 112-131]. In the method used to test these compounds sera were obtained from rats which had been infected with larvae of the nematode parasite Nippostrongylus brasiliensis; as a result of the parasitic infestation reaginic antibodies are elaborated in the host mammal and are found in sera removed from such animals. Other, non-infected, rats received intradermal injections of appropriate dilutions of such sera and were then given the allergenic material along with Evans' blue dye intravenously forty-eight hours later.
The allergenic material consisted of supernatant fluid after centrifugation of homogenates of adult Nippostrongylus brasiliensis worms which had been macerated in Tyrode's solution. The sites of PCA reactions were visualised by the effusion of Evan's blue dye from the circulation into those areas as a result of increased capillary permeability caused by the release of biologically-active substances from cells where reagin-allergen combination had occurred. The new compounds when given intravenously to the rats just before injection of allergen, or administered orally thirty minutes before intravenous injection of allergen, were able to prevent the development of the PCA reaction, as shown below in Table I, Table II and Table III.

`O=C(Nc1ccc(C(=O)Nc2nnn[nH]2)c(O)c1)OCc1ccccc1` [BR, 4-benzyloxycarbonylamino-2-hydroxy-N-(tetrazol-5-yl)benzamide] showed an ED100 of 0.5 mg/kg.
`Cc1cc(C(=O)Nc2nnn[nH]2)c(O)c(-c2nnn[nH]2)c1` [CM, 2-hydroxy-5-methyl-3,N-bis(tetrazol-5-yl)benzamide] showed an ED100 of 0.05 mg/kg and an inhibition in vivo at 100 mg/kg of 64%.
`Cc1cc(C#N)c(O)c(C(=O)Nc2nnn[nH]2)c1` [Compound CL, 3-cyano-2-hydroxy-5-methyl-N-(tetrazol-5-yl)benzamide] gave an ED100 of 2 mg/kg and an inhibition in vivo at 100 mg/kg of 26%.
Compound `CS(=O)(=O)c1cc(C(=O)Nc2nnn[nH]2)c(O)c(S(C)(=O)=O)c1` [BK, 2-hydroxy-3,5-bis(methylsulphonyl)-N-(tetrazol-5-yl)benzamide] has an ED100 of 10 mg/kg and an inhibition in vivo at 100 mg/kg of 29%.
With `O=C(O)c1cccc(C(=O)Nc2nn[nH]n2)c1O` [CN, 3-N-(tetrazol-5-yl)carbamoylsalicylic acid] the ED100 was 1 mg/kg, the inhibition in vivo at 100 mg/kg was 43% and the ED50 was 20 mg/kg.
For `CC(=O)Nc1ccc(O)c(C(=O)Nc2nnn[nH]2)c1` [AZ, 5-acetylamino-2-hydroxy-N-(tetrazol-5-yl)benzamide], the ED100 was 10 mg/kg.
Work on `CC(=O)c1cc(F)cc(C(=O)Nc2nnn[nH]2)c1O` [CC, 3-acetyl-5-fluoro-2-hydroxy-N-(tetrazol-5-yl)benzamide] yielded an ED100 of 0.2 mg/kg, an inhibition in vivo at 100 mg/kg of 62% and an ED50 of 1.9 mg/kg.
Work on `Nc1ccc(O)c(C(=O)Nc2nnn[nH]2)c1` [Compound BS, 5-amino-2-hydroxy-N-(tetrazol-5-yl)benzamide] yielded an ED100 of 5 mg/kg and an inhibition in vivo at 100 mg/kg of 35%.
Compound `CN(C)c1cccc(C(=O)Nc2nnn[nH]2)c1O` [CP, 2-hydroxy-3-dimethylamino-N-(tetrazol-5-yl)benzamide] has an ED100 of 2 mg/kg, an inhibition in vivo at 100 mg/kg of 68% and an ED50 of 26 mg/kg.
`O=C(Nc1nnn[nH]1)c1cc(Br)cc(Br)c1O` [AY, 3,5-dibromo-2-hydroxy-N-(tetrazol-5-yl)benzamide] showed an ED100 of 5 mg/kg and an inhibition in vivo at 100 mg/kg of 65%.
Work on `O=C(Nc1nnn[nH]1)c1cc(Br)ccc1O` [BM, 5-bromo-2-hydroxy-N-(tetrazol-5-yl)benzamide] yielded an ED100 of 5 mg/kg, an inhibition in vivo at 100 mg/kg of 46% and an ED50 of 65 mg/kg.
With `CS(=O)(=O)c1ccc(O)c(C(=O)Nc2nnn[nH]2)c1` [BO, 2-hydroxy-5-methylsulphonyl-N-(tetrazol-5-yl)benzamide] the ED100 was 5 mg/kg and the inhibition in vivo at 100 mg/kg was 63%.
Compound `O=C(Nc1ccc(O)c(C(=O)Nc2nnn[nH]2)c1)OCc1ccccc1` [BQ, 5-benzyloxycarbonylamino-2-hydroxy-N-(tetrazol-5-yl)benzamide] has an ED100 of 5 mg/kg.
`CN(C)S(=O)(=O)c1ccc(O)c(C(=O)Nc2nnn[nH]2)c1` [AB, 2-hydroxy-5-(N,N-dimethylsulphamoyl)-N-(tetrazol-5-yl)benzamide] gave an ED100 of 2 mg/kg.
`CC(=O)c1cc(S(N)(=O)=O)cc(C(=O)Nc2nnn[nH]2)c1O` [Compound BU, 3-acetyl-2-hydroxy-5-sulphamoyl-N-(tetrazol-5-yl)benzamide] gave an ED100 of 0.5 mg/kg and an inhibition in vivo at 100 mg/kg of 86%.
`O=C(Nc1nnn[nH]1)c1ccc(O)cc1O` [AJ, 2,4-dihydroxy-N-(tetrazol-5-yl)benzamide] gave an ED100 of 10 mg/kg and an inhibition in vivo at 100 mg/kg of 38%.
For `CSc1ccc(O)c(C(=O)Nc2nnn[nH]2)c1` [BF, 2-hydroxy-5-methylthio-N-(tetrazol-5-yl)benzamide], the ED100 was 0.5 mg/kg.
`CC(C)(C)NC(=O)c1cccc(C(=O)Nc2nnn[nH]2)c1O` [CO, 3-tert-butylcarbamoyl-2-hydroxy-N-(tetrazol-5-yl)benzamide] showed an ED100 of 5 mg/kg and an inhibition in vivo at 100 mg/kg of 26%.
`CSc1ccc(C(=O)Nc2nnn[nH]2)c(O)c1` [BN, 2-hydroxy-4-methylthio-N-(tetrazol-5-yl)benzamide] showed an ED100 of 10 mg/kg and an inhibition in vivo at 100 mg/kg of 8%.
`Cc1cc(C=O)c(O)c(C(=O)Nc2nnn[nH]2)c1` [CI, 3-formyl-2-hydroxy-5-methyl-N-(tetrazol-5-yl)benzamide] gave an ED100 of 2 mg/kg, an inhibition in vivo at 100 mg/kg of 70% and an ED50 of 5.4 mg/kg.
